# According to patent US20240317721A1, “PYRAZOLYL DERIVATIVES AS INHIBITORS OF THE KRAS MUTANT PROTEIN” (NOVARTIS AG, priority 2021, published 2024):
# pIC50: −log10 of the molar value.
# Biological target: KRasG12C (M1-K169, biotinylated on the N-terminus) (Homo sapiens (Human), UniProt P01116, G12C)
# Assay: Covalent competition assay: scintillation proximity assay (SPA) quantifying covalent modification of KRASG12C
# Type: binding
# Details: competition with radiolabeled covalent probe (Compound B/Compound A), 2 hours incubation, 10 nM KRasG12C
# Protocol: Cells were harvested by centrifugation and frozen at −80° C. until further processing. […] The cells were lysed by 4 passages through an Avestin Emulsiflex at about 20000 psi and insoluble debris removed by centrifugation and filtered through a 0.45 µm Durapore membrane (Millipore). […] Eluted protein fractions were analyzed by Novex NuPage 4-12% PAGE. […] The protein in the flow through was subjected to a final polishing step on a HiLoad 16/60 Superdex 200 prep grade size-exclusion column pre-equilibrated with SEC-buffer (20 mM HEPES pH 7.4, 150 mM NaCl, 5 mM MgCl2, 1 µM GDP). Positive fractions were determined by PAGE (Novex NuPage 4-12% BisTris) analysis.
# A scintillation proximity assay (SPA) was used to determine the potency of the compounds.
# This assay measures the ability of the test compound to compete with the radiolabeled covalent probe for binding to and covalently modify KRASG12C.
# (see above for synthesis of Compound A and Compound B). A serial dilution of the compounds to be tested is mixed with a fixed concentration of the radiolabeled covalent probe before incubation with KRASG12C:GDP as described below. KRASG12C can either be bound by the radiolabeled covalent probe (Compound B), resulting in light being emitted from the beads, or bound by covalent test compound preventing signal generation.
# A 1/20 isotopic dilution of labeled (Compound B) and non-labeled covalent (Compound A) probe was prepared and added to all wells on the plate. The reaction was started by addition of KRasG12C (M1-K169, biotinylated on the N-terminus) to the compounds and incubated for 2 hours with continuous agitation allowing for full modification of KRasG12C with probe or test compounds. Final concentrations in an assay volume of 40 μL were 10 nM KRasG12C, 25 nM radio-ligand and 475 nM unlabelled ligand. The assay buffer contained 20 mM Tris-HCl pH 7.5 (Invitrogen), 150 mM NaCl (Sigma Aldrich), 0.1 mM MgCl2 (Sigma Aldrich), and 0.01% Tween-20 (Sigma Aldrich). Following addition of 50 μL of a 400 μg/mL suspension of streptavidin-coated YSi beads (Perkin Elmer), plates were incubated for a further 30 min with continuous agitation before reading the plates on a scintillation counter (Topcount NXT 384 (Packard).
# Evaluation was carried out using assay data analysis software (such as the standard Novartis in-house Helios software application, Novartis Institutes for BioMedical Research, unpublished) using the methods described in Formenko et al., Robust Regression for high-throughput screening, Computer Methods and Programs in Biomedicine, 2006, 82, 31-37. Following normalization of activity values for the wells to % inhibition (% inhibition=[(high control−sample)/(high control−low control)]×100), IC50 fitting was carried out from the duplicate determinations present on each plate according to Formenko et al., 2006.
# Evaluation can also be carried out using commercially available software which is designed to derive IC50 values using 4-parameter fits (e.g. GraphPad Prism, XL fit).
row,pIC50,Compound
1,5.89,"C=CC(=O)N1CC2(CC(n3nc(N4CCC(C)(O)CC4(C)C)c(-c4c(Cl)c(C)cc5[nH]ncc45)c3C)C2)C1 (single isomer, unassigned) [Example 28b, 1-(6-(4-(5-chloro-6-methyl-1H-indazol-4-yl)-3-(4-hydroxy-2,2,4-trimethylpiperidin-1-yl)-5-methyl-1H-pyrazol-1-yl)-2-azaspiro[3.3]heptan-2-yl)prop-2-en-1-one]"
2,< 5.30,"C=CC(=O)N1CC2(CC(n3nc(N4CCC(O)CC4(C)C)c(-c4c(Cl)c(C)cc5[nH]ncc45)c3C)C2)C1 (single isomer, unassigned) [Example 29a, 1-(6-(4-(5-chloro-6-methyl-1H-indazol-4-yl)-3-(4-hydroxy-2,2-dimethylpiperidin-1-yl)-5-methyl-1H-pyrazol-1-yl)-2-azaspiro[3.3]heptan-2-yl)prop-2-en-1-one]"
3,7.49,"C=CC(=O)N1CC2(CC(n3nc(N4CCC(O)CC4(C)C)c(-c4c(Cl)c(C)cc5[nH]ncc45)c3C)C2)C1 (single isomer, unassigned) [Example 29b, 1-(6-(4-(5-chloro-6-methyl-1H-indazol-4-yl)-3-(4-hydroxy-2,2-dimethylpiperidin-1-yl)-5-methyl-1H-pyrazol-1-yl)-2-azaspiro[3.3]heptan-2-yl)prop-2-en-1-one]"
4,6.29,"C=CC(=O)N1CC2(CC(n3nc(N4CCC(O)CC4(C)C)c(-c4c(Cl)c(C)cc5[nH]ncc45)c3C)C2)C1 (single isomer, unassigned) [Example 30a, 1-(6-(4-(5-chloro-6-methyl-1H-indazol-4-yl)-3-(4-hydroxy-2,2-dimethylpiperidin-1-yl)-5-methyl-1H-pyrazol-1-yl)-2-azaspiro[3.3]heptan-2-yl)prop-2-en-1-one]"
5,5.57,"C=CC(=O)N1CC2(CC(n3nc(N4CCC(O)CC4(C)C)c(-c4c(Cl)c(C)cc5[nH]ncc45)c3C)C2)C1 (single isomer, unassigned) [Example 30b, 1-(6-(4-(5-chloro-6-methyl-1H-indazol-4-yl)-3-(4-hydroxy-2,2-dimethylpiperidin-1-yl)-5-methyl-1H-pyrazol-1-yl)-2-azaspiro[3.3]heptan-2-yl)prop-2-en-1-one]"
6,5.42,"C=CC(=O)N1CC2(CC(n3nc(N4CCC(N5CCOCC5)CC4(C)C)c(-c4c(Cl)c(C)cc5[nH]ncc45)c3C)C2)C1 (single isomer, unassigned) [Example 34a, 1-(6-(4-(5-chloro-6-methyl-1H-indazol-4-yl)-3-(2,2-dimethyl-4-morpholinopiperidin-1-yl)-5-methyl-1H-pyrazol-1-yl)-2-azaspiro[3.3]heptan-2-yl)prop-2-en-1-one]"
7,7.89,"C=CC(=O)N1CC2(CC(n3nc(N4CCC(N5CCOCC5)CC4(C)C)c(-c4c(Cl)c(C)cc5[nH]ncc45)c3C)C2)C1 (single isomer, unassigned) [Example 34b, 1-(6-(4-(5-chloro-6-methyl-1H-indazol-4-yl)-3-(2,2-dimethyl-4-morpholinopiperidin-1-yl)-5-methyl-1H-pyrazol-1-yl)-2-azaspiro[3.3]heptan-2-yl)prop-2-en-1-one]"
8,6.60,"C=CC(=O)N1CC2(CC(n3nc(N4CCC(N5CCOCC5)CC4(C)C)c(-c4c(Cl)c(C)cc5[nH]ncc45)c3C)C2)C1 (single isomer, unassigned) [Example 35a, 1-(6-(4-(5-chloro-6-methyl-1H-indazol-4-yl)-3-(2,2-dimethyl-4-morpholinopiperidin-1-yl)-5-methyl-1H-pyrazol-1-yl)-2-azaspiro[3.3]heptan-2-yl)prop-2-en-1-one]"
9,5.82,"C=CC(=O)N1CC2(CC(n3nc(N4CCC(N5CCOCC5)CC4(C)C)c(-c4c(Cl)c(C)cc5[nH]ncc45)c3C)C2)C1 (single isomer, unassigned) [Example 35b, 1-(6-(4-(5-chloro-6-methyl-1H-indazol-4-yl)-3-(2,2-dimethyl-4-morpholinopiperidin-1-yl)-5-methyl-1H-pyrazol-1-yl)-2-azaspiro[3.3]heptan-2-yl)prop-2-en-1-one]"
10,4.61,"C=CC(=O)N1CC2(CC(n3nc(N4CCN(C(C)=O)CC4)c(-c4c(Cl)ccc5[nH]ncc45)c3C)C2)C1 (single isomer, unassigned) [Example 36a, 1-(6-(3-(4-acetylpiperazin-1-yl)-4-(5-chloro-1H-indazol-4-yl)-5-methyl-1H-pyrazol-1-yl)-2-azaspiro[3.3]heptan-2-yl)prop-2-en-1-one]"
11,5.62,"C=CC(=O)N1CC2(CC(n3nc(N4CCN(C(C)=O)CC4)c(-c4c(Cl)ccc5[nH]ncc45)c3C)C2)C1 (single isomer, unassigned) [Example 36b, 1-(6-(3-(4-acetylpiperazin-1-yl)-4-(5-chloro-1H-indazol-4-yl)-5-methyl-1H-pyrazol-1-yl)-2-azaspiro[3.3]heptan-2-yl)prop-2-en-1-one]"
12,< 4.30,"C=CC(=O)N1CC2(CC(n3nc(N4CC(c5cccnc5)C4)c(-c4c(Cl)c(C)cc5[nH]ncc45)c3C)C2)C1 (single isomer, unassigned) [Example 37a, 1-(6-(4-(5-chloro-6-methyl-1H-indazol-4-yl)-5-methyl-3-(3-(pyridin-3-yl)azetidin-1-yl)-1H-pyrazol-1-yl)-2-azaspiro[3.3]heptan-2-yl)prop-2-en-1-one]"
13,5.68,"C=CC(=O)N1CC2(CC(n3nc(N4CC(c5cccnc5)C4)c(-c4c(Cl)c(C)cc5[nH]ncc45)c3C)C2)C1 (single isomer, unassigned) [Example 37b, 1-(6-(4-(5-chloro-6-methyl-1H-indazol-4-yl)-5-methyl-3-(3-(pyridin-3-yl)azetidin-1-yl)-1H-pyrazol-1-yl)-2-azaspiro[3.3]heptan-2-yl)prop-2-en-1-one]"
14,< 5.30,"C=CC(=O)N1CC2(CC(n3nc(N4CCC5C(CC(=O)N5C)C4)c(-c4c(Cl)c(C)cc5[nH]ncc45)c3C)C2)C1 (single isomer, unassigned) [Example 38a, 5-(1-(2-acryloyl-2-azaspiro[3.3]heptan-6-yl)-4-(5-chloro-6-methyl-1H-indazol-4-yl)-5-methyl-1H-pyrazol-3-yl)-1-methyloctahydro-2H-pyrrolo[3,2-c]pyridin-2-one]"
15,7.05,"C=CC(=O)N1CC2(CC(n3nc(N4CCC5C(CC(=O)N5C)C4)c(-c4c(Cl)c(C)cc5[nH]ncc45)c3C)C2)C1 (single isomer, unassigned) [Example 38b, 5-(1-(2-acryloyl-2-azaspiro[3.3]heptan-6-yl)-4-(5-chloro-6-methyl-1H-indazol-4-yl)-5-methyl-1H-pyrazol-3-yl)-1-methyloctahydro-2H-pyrrolo[3,2-c]pyridin-2-one]"
16,4.38,"C=CC(=O)N1CC2(CC(n3nc(N4CCC5C(CC(=O)N5C)C4)c(-c4c(Cl)c(C)cc5[nH]ncc45)c3C)C2)C1 (single isomer, unassigned) [Example 39a, 5-(1-(2-acryloyl-2-azaspiro[3.3]heptan-6-yl)-4-(5-chloro-6-methyl-1H-indazol-4-yl)-5-methyl-1H-pyrazol-3-yl)-1-methyloctahydro-2H-pyrrolo[3,2-c]pyridin-2-one]"
17,7.12,"C=CC(=O)N1CC2(CC(n3nc(N4CCC5C(CC(=O)N5C)C4)c(-c4c(Cl)c(C)cc5[nH]ncc45)c3C)C2)C1 (single isomer, unassigned) [Example 39b, 5-(1-(2-acryloyl-2-azaspiro[3.3]heptan-6-yl)-4-(5-chloro-6-methyl-1H-indazol-4-yl)-5-methyl-1H-pyrazol-3-yl)-1-methyloctahydro-2H-pyrrolo[3,2-c]pyridin-2-one]"
18,< 4.30,"C=CC(=O)N1CC2(CC(n3nc(N4CCc5nn(C)c(=O)cc5C4)c(-c4c(Cl)c(C)cc5[nH]ncc45)c3C)C2)C1 (single isomer, unassigned) [Example 40a, 6-(1-(2-acryloyl-2-azaspiro[3.3]heptan-6-yl)-4-(5-chloro-6-methyl-1H-indazol-4-yl)-5-methyl-1H-pyrazol-3-yl)-2-methyl-5,6,7,8-tetrahydropyrido[4,3-c]pyridazin-3(2H)-one]"
